Read-outs that look alike come from different tables or passages of the source.

Consider 26 substances from publication PMC5458078, “Global mapping of CARM1 substrates defines enzyme specificity and substrate recognition” (Nature Communications, 2017).

For one assay, the system named is MCF7 cells. Kind of assay: Quantitative nanoLC-MS/MS (TMT) of ADMA-containing peptides, CARM1 KO vs parental. Type of assay: cell-based, human. The arrangement: Fold change KO/WT: scale not given here.
For a further assay, the system named is MCF7 CARM1 KO cells. Kind of assay: Quantitative MS of ADMA-containing peptides in MCF7 CARM1 KO cells expressing CARM1 28-608 or CARM1 140-608, and in CARM1 KO. Type of assay: cell-based, human.
Setting [1] is: CARM1 KO vs wild type MCF7 cells, 3 biological replicates each.
Setting [2] is: CARM1 140-608 versus WT, difference of mean log2 values.
Setting [3] is: CARM1 KO versus WT, difference of mean log2 values.
Setting [4] is: ADMA-containing peptide, MCF7, CARM1 knockout (KO1-3) vs wild type (WT1-3), TMT 6-plex experiment #1.
[5] abbreviates: MCF7, CARM1 KO vs WT, three biological replicates each.
The mark [6] stands for this setting: ratio on log2 scale, mean of 3 replicates.
Where [7] appears, read: MCF7, CARM1 KO (KO1-KO3) vs wild type (WT1-WT3).
[8] abbreviates: CARM1 140-608 vs WT, mean of 3 replicates (log2 scale).
Where [9] appears, read: KO vs WT, mean of 3 replicates (log2 scale).
Where [10] appears, read: MCF7, CARM1 knockout vs wild type, n = 3 each.
Where [11] appears, read: mean, CARM1 140-608 versus WT (log2 scale).
[12] abbreviates: mean, CARM1 KO versus WT (log2 scale).
Where [13] appears, read: CARM1 140-608 vs WT, mean of 3 replicates, log2.
Where [14] appears, read: KO vs WT, mean of 3 replicates, log2.
Where [15] appears, read: log2 scale ratio, mean of n = 3.
The mark [16] stands for this setting: MCF7 CARM1 knockout vs wild type, 3 biological replicates each, values are on log2 scale.
Where [17] appears, read: CARM1 140-608 versus WT, mean of three replicates (log2).
The mark [18] stands for this setting: KO versus WT, mean of three replicates (log2).

For the substance IPGIPrHSGPQYSMMQPHLQR, in the assay with MCF7 cells (setting [1]), the “Fold change KO/WT” value is listed as -0.5283. Further, in the assay with MCF7 CARM1 KO cells (setting [2]), the “CARM1 140-608/WT” value amounted to 1.323. The KO/WT in the assay with MCF7 CARM1 KO cells (setting [3]) was -0.1608.

Regarding LGHDAYrLGQDPYrLGHDPYR, the “Fold change KO/WT” value in the assay on MCF7 cells (setting [4]) is -1.784. Further, in the assay with MCF7 CARM1 KO cells, the “CARM1 140-608/WT” value is listed as -1.958 and the KO/WT is -1.784.

Regarding GALSISAPLGDFrHTLHVGR, the “Fold change KO/WT” value in the assay with MCF7 cells (setting [5]) is on record as -1.149. For the same substance, in the assay on MCF7 CARM1 KO cells (setting [6]), the “CARM1 140-608/WT” value is -1.004 and the KO/WT is -1.149.

EPFLSrDPFHSLK: in the assay on MCF7 cells (setting [7]), the “Fold change KO/WT” value came out at 2.308. For the same substance, the “CARM1 140-608/WT” value in the assay with MCF7 CARM1 KO cells (setting [8]) was 0.7405. In addition, the KO/WT in the assay with MCF7 CARM1 KO cells (setting [9]) is given as 1.534.

KPLGTAPHCPrLPLR: in the assay with MCF7 cells (setting [10]), the “Fold change KO/WT” value was -3.016. In addition, the “CARM1 140-608/WT” value with MCF7 CARM1 KO cells (setting [11]) is recorded as -2.281. The KO/WT in the assay on MCF7 CARM1 KO cells (setting [12]) is reported as -3.016.

Regarding SQAPArYSLQSANASSLSSGQLK, in the assay on MCF7 cells (setting [5]), the “Fold change KO/WT” value is on record as -4.438. The “CARM1 140-608/WT” value with MCF7 CARM1 KO cells (setting [13]) is on record as -3.491. The substance also displayed a KO/WT with MCF7 CARM1 KO cells (setting [14]) of -4.438.

For TPTATTSGIrATLTPTVLAPR, the “Fold change KO/WT” value in the assay on MCF7 cells (setting [4]) is -1.669. Further, in the assay on MCF7 CARM1 KO cells (setting [15]), the “CARM1 140-608/WT” value amounted to 0.4696 and the KO/WT was -2.089.

For YLQTVQYGVHGNFPrLSYPTFFPR, the “Fold change KO/WT” value in the assay on MCF7 cells (setting [10]) was -2.556. Besides, the “CARM1 140-608/WT” value with MCF7 CARM1 KO cells (setting [11]) was -2.496. Further, in the assay on MCF7 CARM1 KO cells (setting [12]), the KO/WT is listed as -3.476.

As for AYGQQYWGQPGNrGGYrNFYDR, the “Fold change KO/WT” value in the assay with MCF7 cells (setting [16]) is reported as 0.1386. Further, in the assay on MCF7 CARM1 KO cells (setting [11]), the “CARM1 140-608/WT” value is listed as -0.223. The KO/WT in the assay on MCF7 CARM1 KO cells (setting [12]) amounted to 0.1923.

In the case of “VLGIIPSSTGTSQQTFTSFQPrTATVTIrPNTSGSGGTTSNSQVITGPQIrPGMTVIrTPLQQSTLGK”, the “Fold change KO/WT” value in the assay with MCF7 cells (setting [5]) is on record as -6.437. Besides, the “CARM1 140-608/WT” value in the assay on MCF7 CARM1 KO cells (setting [13]) was -2.572. In the assay with MCF7 CARM1 KO cells (setting [14]), this substance registered a KO/WT of -6.437.

On to GrGALLQDICK, for which the “Fold change KO/WT” value in the assay with MCF7 cells (setting [1]) is 0.3016. In addition, the “CARM1 140-608/WT” value in the assay on MCF7 CARM1 KO cells (setting [2]) is listed as 0.1138. The KO/WT with MCF7 CARM1 KO cells (setting [3]) is listed as -0.96.

Turning to ATSVLPrYGPPCLFK, the “Fold change KO/WT” value with MCF7 cells (setting [4]) is -3.4878. Besides, in the assay on MCF7 CARM1 KO cells (setting [15]), the “CARM1 140-608/WT” value is -1.277 and the KO/WT is given as -3.4878.

On to LLPAPrAYLVPENFR, for which the “Fold change KO/WT” value in the assay with MCF7 cells (setting [1]) is -0.8691. For the same substance, in the assay on MCF7 CARM1 KO cells (setting [2]), the “CARM1 140-608/WT” value is reported as -1.125. This substance also registered a KO/WT in the assay with MCF7 CARM1 KO cells (setting [3]) of -0.8691.

Consider “MGTPVPRPPQDMGQIGVrTPLGPrVAAPVGPVGPTPTVLPMGAPVPrPrGPPPPPGDENR”, for which the “Fold change KO/WT” value in the assay on MCF7 cells (setting [7]) is on record as -3.294. The “CARM1 140-608/WT” value in the assay on MCF7 CARM1 KO cells (setting [8]) is listed as -2.604. For the same substance, in the assay on MCF7 CARM1 KO cells (setting [9]), the KO/WT is listed as -3.5517.

With SAPFFIPTIPGLVPrYAAPEQNNDPQQSK, the “Fold change KO/WT” value with MCF7 cells (setting [1]) is -5.228. Moreover, in the assay on MCF7 CARM1 KO cells (setting [2]), the “CARM1 140-608/WT” value is reported as -3.554. In the assay with MCF7 CARM1 KO cells (setting [3]), the KO/WT was -5.228.

On to “VGSSNFrGGLGGGYGGASGMGGITAVTVNQSLLSPLVLEVDPNIQAVR”, for which the “Fold change KO/WT” value with MCF7 cells (setting [16]) is -0.7814. Moreover, the “CARM1 140-608/WT” value in the assay with MCF7 CARM1 KO cells (difference of log2 means, CARM1 140-608 vs WT) is recorded as -0.9286. In the assay on MCF7 CARM1 KO cells (difference of log2 means, KO vs WT), the KO/WT is on record as -0.7814.

For the substance SPFLGSArPrLR, the “Fold change KO/WT” value with MCF7 cells (setting [4]) was -3.721. In the assay on MCF7 CARM1 KO cells, the “CARM1 140-608/WT” value is recorded as -0.6148 and the KO/WT is -3.721.

Regarding “TPTATTSGIrATLTPTVLAPrLPQPPQNPTNIQNFQLPPGMVLVR”, the “Fold change KO/WT” value in the assay on MCF7 cells (setting [4]) is reported as -3.04. Moreover, in the assay on MCF7 CARM1 KO cells (setting [15]), the “CARM1 140-608/WT” value amounted to 0.4964 and the KO/WT is given as -3.04.

Turning to TPGQPGPQrFDGPPGQQVQPrFDGVPQrFDGPQHQQASR, the “Fold change KO/WT” value in the assay on MCF7 cells (ADMA-containing peptide, CARM1 knockout (KO) vs wild type (WT) MCF7 cells, 6-plex TMT experiment #1, three biological replicates each, sheet "MCF7") was -1.547. For the same substance, the “CARM1 140-608/WT” value with MCF7 CARM1 KO cells (setting [17]) was -1.05. Also, the KO/WT in the assay with MCF7 CARM1 KO cells (setting [18]) is reported as -1.824.

For the substance GrFPGAVPGGDrFPGPAGPGGPPPPFPGNLIK, the “Fold change KO/WT” value with MCF7 cells (setting [10]) is recorded as -2.782. For the same substance, in the assay with MCF7 CARM1 KO cells (setting [6]), the “CARM1 140-608/WT” value is -1.24 and the KO/WT is on record as -2.782.

For GPPLArLPHDPGVFR, in the assay with MCF7 cells (setting [10]), the “Fold change KO/WT” value is reported as -1.8. For the same substance, in the assay with MCF7 CARM1 KO cells (setting [6]), the “CARM1 140-608/WT” value is listed as -1.527 and the KO/WT was -1.8.

For rPFGISALIVGFDDDGISR, the “Fold change KO/WT” value with MCF7 cells (setting [7]) is recorded as -1.577. The “CARM1 140-608/WT” value with MCF7 CARM1 KO cells (setting [17]) was -0.5842. Moreover, the KO/WT in the assay with MCF7 CARM1 KO cells (setting [18]) was -1.577.

Turning to VQTHLENPTrYHLQQAR, in the assay on MCF7 cells (setting [4]), the “Fold change KO/WT” value is reported as -1.173. Besides, in the assay with MCF7 CARM1 KO cells (setting [15]), the “CARM1 140-608/WT” value is -1.396 and the KO/WT is reported as -1.173.

For GTPGPPPAHGAALQPHPrVNFCPLPSEQCYQAPGGPEDR, in the assay on MCF7 cells (setting [1]), the “Fold change KO/WT” value is on record as -0.7925. Besides, in the assay on MCF7 CARM1 KO cells (setting [2]), the “CARM1 140-608/WT” value was -1.327. The KO/WT in the assay on MCF7 CARM1 KO cells (setting [3]) was -0.7925.

In the case of GPPGGNrGGFQNrGGGSGGGGNYrGGFNR, the “Fold change KO/WT” value in the assay with MCF7 cells (setting [16]) is recorded as 0.2458. Besides, the “CARM1 140-608/WT” value in the assay on MCF7 CARM1 KO cells (setting [11]) came out at 0.1824. This substance also registered a KO/WT in the assay on MCF7 CARM1 KO cells (setting [12]) of 0.1614.

In the case of “EGAEGVNGGEESVNLNDADEGFSSGASLSSQPIGTKPSSSSQrGSLR”, the “Fold change KO/WT” value with MCF7 cells (setting [10]) is -0.04765. In the assay with MCF7 CARM1 KO cells (setting [6]), the “CARM1 140-608/WT” value is on record as -0.2709 and the KO/WT is listed as -0.04765.
